Series [1] has as its target T1, AnFAO_15309 (Aspergillus niger, UniProt A2R252). It counts as biochemical. The following applies: 20 nM enzyme, 50 μM substrate, pH 7.0, 1 hr. On the procedure: (§1) Absorbance was monitored at 571 nm every 10 mins for 1 hr. A standard curve consisting of 0-10 μM H2O2 was included to determine the absorbance for every μmol of H2O2 generated by the reaction.
The target in series [2] is T1, AnFAO_15309. The experiment in a line: Kinetic analysis of recombinant AnFAO_15309. It counts as biochemical. The method, then: as §1
The resulting mixture was twice extracted with equal volumes of ethyl acetate, dried, and re-suspended in reaction buffer.

Series [3] concerns fumonisin deamination activity from A. niger culture supernatants. The experiment in a line: Fumonisin chemotype preference of deamination activity, reverse-phase LC-MS. It counts as biochemical, Aspergillus niger. The conditions noted are these: for initial conversion rate of intact to deaminated fumonisin: FB1 and FB2 co-incubated at 37° C. with active sample following high-resolution ion exchange, n=2.
Protocol: After each step, protein fractions were assayed for deamination activity by monitoring their ability to convert intact FB2 into FPy2 via reverse-phase liquid chromatography/mass spectrometry (LC-MS), as shown in FIG. 2. In particular, all MS data were collected with a Q-Exactive™ Quadrupole Orbitrap™ mass spectrometer (Thermo Scientific, MA, USA) coupled to an Agilent 1290 ultra-high-performance liquid chromatography (UHPLC) system. Fumonisins were resolved on a Zorbax™ Eclipse Plus Rapid Resolution High Definition (RRHD) C18 column (2.1×50 mm, 1.8 μm; Agilent Technologies, CA, USA), maintained at 35° C. The mobile phase was comprised of water with 0.1% formic acid (A), and acetonitrile with 0.1% formic acid (B) (Optima grade, Fisher Scientific, NJ, USA). The gradient consisted of 0% B for 0.5 min before increasing to 100% over 3 min, held at 100% for 2.5 min and reduced to 0% over 0.5 min. The fumonisins were detected in negative ionization mode using the following electrospray conditions: capillary voltage, 4.0 kV; capillary temperature, 400° C.; sheath gas, 17.00 units; auxiliary gas, 8.00 units; probe heater temperature, 450° C.; S Lens RF level, 45.00. The data-dependent acquisition method involved a full MS scan at 17,500 resolution over a scan range of 140-760 m/z; automatic gain control (AGC) target and maximum injection time (max IT) was 5×10^6 and 64 ms, respectively. The five highest intensity ions from the full scan (excluding isotopes) were sequentially selected using a 1.2 m/z isolation window and analyzed at a resolution of 17,500; AGC target, 1×10^5; max IT, 64 ms; normalized collision energy (NCE) 30; threshold intensity 9.1×10^4; and dynamic exclusion of 1.5 s. Fumonisins were detected by accurate mass (±5 ppm) and retention time (±0.1 min) and verified by MS/MS.
All samples assayed during protein purification were incubated at 37° C. with 1 μM FB2 (Sigma) unless stated otherwise. Reactions were terminated via addition of a 10-fold volume excess of 50% (v:v) methanol in water prior to reverse-phase LC/MS analysis represented in FIG. 2.

Substrate in series [4]: CCCCCCCCCCCCCCC[C@@H](O)[C@@H](N)CO
Kind of series: purified protein, by the assay type. The following applies: other: recombinant AnFAO_15309; pH 7.0.

Substrate in series [5]: CCCC[C@@H](C)[C@@H](O)[C@@H](O)C[C@@H](C)C[C@H](O)CCCC[C@@H](O)C[C@H](O)[C@H](C)N
Kind of series: purified protein, by the assay type. The following applies: other: recombinant AnFAO_15309; pH 7.0.

The nature of series [6]: Amplex red assay of AnFAO homolog clones. It counts as biochemical. From the text: Seven of the AnFAO homologs were synthesized and cloned into the MBP-TEV vector for recombinant expression in E. coli.
Series [7] can be described thus: Circular dichroism thermal denaturation. It counts as physicochemical. The conditions noted are these: 0.3 mg/ml, 20 mM Tris-HCl (pH 7.4), 50 mM NaCl, 0.75 mM DTT, monitored at 222, 20 to 95° C. On the procedure:
Activity was measured via reverse-phase LC/MS analysis. […] All proteins were scanned at a concentration of 0.3 mg/ml in buffer containing 20 mM Tris-HCl (pH 7.4), 50 mM NaCl and 0.75 mM DTT. Thermal denaturation was monitored at […] with a temperature scan ranging from 20 to 95° C., increasing by 1° C. per minute with data collection every 30 seconds. Baseline corrected data were converted from millidegrees to mean residue ellipticity, and thermal denaturation curves were produced by nonlinear regression in Graphpad Prism.
For orientation: CD spectra are sensitive to the conformation of chiral molecules.

Residue numbers refer to the chain shown, from its start. Names and notes keep the numbering of the source. Where two headings read alike, the source gives them in different places.

Consider `NCCc1ccc(O)c(O)c1` [dopamine], for which the “relative activity, relative to FB3 (100% activity)” value (“relative activity … (100% activity)” below) in series [1] was 9.7%.
`CCCCCCCCCCCCCCC[C@@H](O)[C@@H](N)CO` [sphinganine]: the “fold change (efficiency compared to FB2)” value in series [2] was 16.6 fold. In addition, the kcat (in general, the number of substrate molecules converted per active site and unit of time at saturation) in series [2] (recombinant AnFAO_15309) came to 0.612 s⁻¹.
As to `N[C@H]1C(O)O[C@H](CO)[C@@H](O)[C@@H]1O` (stereo partly drawn) [glucosamine], the “relative activity … (100% activity)” value in series [1] is 1.2%.
On to `CCCC[C@@H](C)[C@@H](O)[C@@H](O)C[C@@H](C)C[C@H](O)CCCC[C@@H](O)C[C@H](O)[C@H](C)N` [hFB1], for which the “fold change (efficiency compared to FB2)” value in series [2] (kcat/KM relative to FB2 = 1.0) turned out to be 4.6 fold. The turnover number (kcat) in series [2] (recombinant AnFAO_15309) stood at 0.298 s⁻¹.
On to Fumonisin B1 [FB1], for which the “initial conversion rate of intact to deaminated fumonisin” value in series [3] turned out to be 2.1±0.1 % hr^−1. In addition, in series [2] (kcat/KM relative to FB2 = 1.0), the “fold change (efficiency compared to FB2)” value is 0.3 fold.
On to `CCCC[C@@H](C)[C@@H](OC(=O)C[C@@H](CC(=O)O)C(=O)O)[C@H](C[C@@H](C)CCCCCC[C@@H](O)C[C@H](O)[C@H](C)N)OC(=O)C[C@@H](CC(=O)O)C(=O)O` [FB2, fumonisin B2], for which the “initial conversion rate of intact to deaminated fumonisin” value in series [3] came to 24.3±1.5 % hr^−1. Further, the “chemotype preference for FB2 compared to FB1” value in series [3] (co-incubation of FB1 and FB2 at 37° C.) is on record as “order of magnitude”. Also, the “fold change (efficiency compared to FB2)” value in series [2] (kcat/KM relative to FB2 = 1.0) was 1.0 fold. Also, in series [2] (recombinant AnFAO_15309), the Km (usually the substrate concentration at which the rate is half of its maximum) was found to be 195 µM and the catalytic constant (kcat) turned out to be 0.228 s⁻¹. In addition, in series [2] (relative to FB1), the “efficiency at deaminating FB2 compared to FB1” value amounted to 3.2 fold, the “increase in catalytic efficiency (kcat) FB2 vs. FB1” value is given as approximately 1.6 fold and the “stronger affinity (KM) FB2 vs. FB1” value is reported as approximately 2 fold.
Take `NCCCNCCCCNCCCN` [spermine]: the “relative activity … (100% activity)” value in series [1] came out at 1.9%.
On the same count and under the same terms, the value for `CCCN` [propylamine] was 5.6%; that for `CCCC[C@@H](C)[C@@H](OC(=O)CC(CC(=O)O)C(=O)O)[C@H](C[C@@H](C)C[C@H](O)CCCCCC[C@@H](O)[C@H](C)N)OC(=O)CC(CC(=O)O)C(=O)O` (stereo partly drawn) [FB3] was 100%.
On the same count and under the same terms, in the case of `NCCc1c[nH]c2ccc(O)cc12` [serotonin] it was 3.7%; in that of `NCCCC[C@H](N)C(=O)O` [lysine], 6.3%; in that of `NCc1ccccc1` [benzylamine], 1.4%.
Still for that read-out and setting: in the case of `NCCc1ccc(O)cc1` [tyramine] it was 5.8%.
On to `NCCCCNCCCN` [spermidine], for which, in series [1], the “relative activity … (100% activity)” value is recorded as 1.4%.

B1: AnFAO_15309 (Aspergillus niger CBS 513.88) (protein)
chain: MSVSNDPTTKLYDAVIVGAGLSGLQAAHSIQAAGFSVCILEATDRMGGKTLTVKSSEKGYNDLGAAWVNDTNQTEIFKLHQRYGLDGVVQYTCGDDILESGEGVIRKIPYGLPLTGLPKKLLDILRIESSRLDLDDPTSFPGATEVDNLTFRDFCVEKTGSEDVIHITDAISTALLGLNSNELSALYMLYYFKSGSGIDNLLSDERDGAQYLRTRQGTQTIARKMADELTQSDIFLGMPVTSINQTDADAHCVVQTLDGSSFRCRRVIVSIPTTLYRSVSFHPPLPHAKQVLSDHTIMGYYSKVIFIFKEPWWRDAGLTGIVNCAGGPITFTRDTSVPTDDQWSITCFMVGSRGRAWSKLSKDDRYSQVWEQFRRCFEEFVENIPEPVNTLEMEWSKEPYFLGAPCPAMIPGLLTTAGSDLAAPHGKVHFIGTETSTVWRGYMEGAIRAGQRGGAEVVTALQED
With B1, in series [4], the Km stood at 31.4 µM; the turnover number (kcat) came to 0.612 s⁻¹; the kcat/Km (as a rule, the turnover number divided by the Michaelis constant) amounted to 19000 M⁻¹ s⁻¹. Moreover, in series [5], the Michaelis-Menten constant (Km) was 55.2 µM, the catalytic constant (kcat) was 0.298 s⁻¹ and the specificity constant (kcat/Km) came to 5400 M⁻¹ s⁻¹.

B2: AnFAO_7097: AnFAO homolog clone, SEQ ID NO: 29 (protein)
chain: B1 chain with M46V, R82Q, N323D, F377L, E379G, V388A, A417T
modifications: Aspergillus niger
Turning to B2, the “activity compared to 15309” value in series [6] (80 nM enzyme, 25 μM FB1, pH 7) worked out at 27%.

B3: AnFAO_6142: AnFAO homolog clone, SEQ ID NO: 28, identical to AnFAO_10929; substitutions M46V, R82Q, V267L vs AnFAO_15309 (protein)
chain: B1 chain with M46V, R82Q, V267L
modifications: Aspergillus niger
notes: substitutions M46V, R82Q, V267L vs AnFAO_15309
With B3, the “activity compared to AnFAO_15309 (fold)” value in series [6] (80 nM enzyme, 25 μM FB1, pH 7) turned out to be 2.5 ×. The relative activity entry in series [6] (relative to AnFAO_15309 = 1) is “(relative activity = 2.5):”. Moreover, the melting temperature in series [7] stood at 76 °C.

B4: AnFAO_10927: AnFAO homolog clone, SEQ ID NO: 27 (protein)
chain: B1 chain with M46V, T230S, Q255K, N323D, C376F, V388A
modifications: Aspergillus niger
As to B4, the “activity compared to 15309” value in series [6] (80 nM enzyme, 25 μM FB1, pH 7) turned out to be 31%. Further, the melting temperature in series [7] worked out at 76 °C.

For the origin of these results see US20210337838A1, “RECOMBINANT EXPRESSION OF FUMONISIN AMINE OXIDASE” (priority 2018, published 2021).
